From patent US10071103B2, “Treatments for resistant acne” (VYOME BIOSCIENCES PVT. LTD., priority 2014, dated 2018) come the findings set out here.

Values after ≈ are worked out from the molar mass of the structure shown.

In assay [1] the test system is IL-6. The assay is described as follows: P. acnes-induced IL-6 release in THP-1 cells (ELISA). In kind it is cell-based. Conditions: THP-1 cells. The procedure:
(§1) Method: Preparation of Stimulant for Inflammation: P. acnes culture suspension was prepared in PBS and the cell number in the suspension was adjusted to approximately 5×10^8 CFU/ml by measuring the cell density using a Densimat. The bacterial suspension was then heat killed at 80° C. for 30 min and stored at −80° C. until further use.
(§2) Cells were seeded in a 96-well format (2×10^5 THP-1 cells per well) in media containing 10% FBS. The cells were stimulated to induce inflammatory cytokines using 3 McFarland equivalent heat-killed P. acnes. Cells in control wells were treated with PBS. One hour after induction with P. acnes, test agents were added to the induced cells at appropriate concentrations to be tested (compound 91 at 25 μg/ml). The plates were incubated at 37° C. for 24 hours. After 24 h, the plates were centrifuged to pellet the cells and the supernatants were collected. The cell culture supernatants thus obtained were analyzed for levels of cytokines (IL-1α, IL-1β, IL-6 and IL-8) by ELISA using R&D Systems kits for individual cytokines following the manufacturer's instructions.
(§3) Preparation of stimulant for inflammation: P. acnes culture suspension was prepared in PBS and the cell number in the suspension was adjusted to approximately 5×10^8 CFU/ml by measuring the cell density using a Densimat. The bacterial suspension was then heat killed at 80° C. for 30 min and stored at −80° C. until further use.
(§4) Cells were seeded in a 96-well format (2×10^5 THP-1 cells per well) in media containing 10% FBS. The cells were stimulated to induce inflammatory cytokines using 3 McFarland equivalent heat-killed P. acnes. Cells in control wells were treated with PBS. One hour after induction with P. acnes, test agents were added to the induced cells at appropriate concentrations (Besifloxacin at 10 and 30 μg/ml; Adapalene at 0.04 and 0.4 μg/ml). The plates were incubated at 37° C. for 24 hours. After 24 h, the plates were centrifuged to pellet the cells and the supernatants were collected. The cell culture supernatants thus obtained were analyzed for cytokine levels (IL-6 and IL-8) by ELISA using R&D Systems kits for individual cytokines following the manufacturer's instructions.

Assay [2] concerns IL-8. The assay is described as follows: P. acnes-induced IL-8 release in THP-1 cells (ELISA). In kind it is cell-based. Conditions: THP-1 cells. The procedure: as §1, §2, §3, §4
Assay [3] deals with P. acnes CCARM 9010. As to the kind of experiment: In vitro time kill kinetics, P. acnes CCARM 9010. In kind it is cell-based, Propionibacterium acnes. The note with it: 2.5 μg/ml. The procedure:
P. acnes (CCARM 9010) Aqueous Suspension (0.5 McFarland standard equivalent) was centrifuged at 2000 rpm for 20 min, pellet was resuspended in Brain Heart Infusion (BHI) broth. Resultant P. acnes suspension was kept for overnight (16 h) incubation in anaerobic box at 37° C. Stock solution of besifloxacin.HCl (1 mg/ml) was prepared in dimethyl sulphoxide (DMSO) which was further diluted with BHI broth to achieve working stock of besifloxacin.HCl (25 μg/ml). Then reaction mixture was prepared by adding 900 μl of P. acnes 0.5 McFarland standard culture (after 16 h incubation) to 100 μl of besifloxacin.HCl working stock solution (25 μg/ml), final besifloxacin.HCl concentration in reaction mixture was 2.5 μg/ml. Reaction mixture (1 ml) was incubated at 37° C. for 24 h in an anaerobic box in two sets—(1) tube with P. acnes with 2.5 μg/ml Besifloxacin.HCl and 2) broth control without besifloxacin.HCl. At predetermined time points (1 h, 6 h and 24 h), cells were collected and plated in duplicate after serial dilution in Brain Heart Infusion agar plate. Plates were allowed to grow for 3 days at 37° C. in anaerobic box. After incubation, plates were counted to determine colony forming units (CFU) and log reduction was calculated. In a similar experimental set-up, water was used as solvent instead of DMSO and effects of solvents on time kill kinetics were also studied.
2) Zone of Inhibition (ZOI): For ZOI test, BHA plates were spread with 100 μl of P. acnes suspension (0.5 McFarland standard equal). Test samples (drugs/formulations) were dissolved in water/solvent based on the solubility. Sterile disc (6 mm) were loaded with 10 μl of test samples (of various concentration of drug), and were placed above the plates containing P. acnes culture. Then, plates were incubated at 37° C. for 48 h, followed by their ZOI measurements. 3) Time Kill Kinetics (TK): For TK Test, P. acnes (CCARM 9010) aqueous suspension (0.5 McFarland standard equivalent) was centrifuged at 2000 rpm for 20 min, pellet was resuspended in brain heart infusion (BHI) broth. Resultant P. acnes suspension was kept for overnight (16 h) incubation in anaerobic box at 37° C. Stock solution of besifloxacin.HCl (1 mg/ml) was prepared in dimethyl sulphoxide (DMSO) which was further diluted with BHI broth to obtain working stock of besifloxacin.HCl (25 μg/ml). Then reaction mixture was prepared by adding 900 μl of P. acnes 0.5 McFarland standard equal culture (after 16 h of incubation) and 100 μl of besifloxacin.HCl working stock (25 μg/ml), to obtain final besifloxacin.HCl concentration in reaction mixture, 2.5 μg/ml. Reaction mixture (1 ml) was incubated at 37° C. in an anaerobic box—(1) tube with P. acnes and 2.5 μg/ml Besifloxacin.HCl and 2) broth control without besifloxacin.HCl for 24 h. At predetermined time points (0 h, 2 h, 8 h and 24 h), cells were collected and plated in duplicate after serial dilution in brain heart infusion agar plate. Plates were allowed to grow for 3 days at 37° C. in anaerobic box. After incubation, plates were counted to determine colony forming units (CFU) and log reduction was calculated.
0.5 McFarland standard equal P. acnes (CCARM 9010) culture was prepared in sterile water. Prepared culture was centrifuged at 2000 rpm for 20 min then supernatant was removed and similar amount of brain heart infusion (BHI) broth was added. P. acnes culture in BHI broth was kept for overnight (16 h.) incubation in anaerobic box at 37° C. Besifloxacin powder was diluted in water and DMSO to prepare 1 mg/ml stock and then both were further diluted in BHI broth to make final concentration of 100 μg/ml. 900 μl of P. acnes 0.5 McFarland culture (after 16 h. incubation) and 100 μl of diluted Besifloxacin (100 μg/ml) were mixed to obtain final Besifloxacin concentration 10 μg/ml in reaction mixture. Total reaction mixture (1 ml) was incubated at 37° C. in an anaerobic box.

The test system of assay [4] is P. acnes MTCC 1951. As to the kind of experiment: MIC by micro broth dilution (Alamar blue), clindamycin-susceptible P. acnes. It counts as cell-based, Propionibacterium acnes. The note with it: for Activity / bacterial killing, dose response curve (in words): clindamycin-susceptible MTCC 1951. Here is the method: (§5) The plates were incubated at 37° C. for 48 h under anaerobic condition for P. acnes and 37° C. for 24 h for S. aureus The plates were read under Bio-Rad plate reader at 595 nm for optical density to generate the dose-response curves. The MIC of the test compound was recorded by addition of Alamar blue dye.
(§6) P. acnes (MTCC 3297, MTCC 1951& CCARM 9010) are cultured in Brain Heart Infusion (BHI) Broth at 37° C. for 48-72 h under anaerobic condition. The test compounds/formulations are initially diluted with suitable solvent and further diluted with BHI broth to get the required concentrations. Samples (100 μl) of different concentrations (prepared by serial dilution) are added to 96-well plate. To the wells, 100 μl of P. acnes BHI broth culture is added [culture turbidity adjusted against 0.5 McFarland standard (approx 1.5×10^8), and further diluted 100-fold with sterile BHI broth]. In addition Growth Control and Sterility Control are created using 100 μl each of P. acnes BHI broth culture and plain BHI broth, respectively.
(§7) Plates are incubated at 37° C. for 48-72 hrs under anaerobic condition. The plate is read under Bio-Rad plate reader @ 595 nm for optical density to generate the dose-response curves. The MIC of the test compound is recorded by addition of Alamar blue dye.
BHI broth and BHI agar media were prepared as per the manufacturer's instruction and autoclaved at 121° C. for 15 minutes. […] For MIC determination testing, gels are dissolved in the solvent and further diluted with BHI broth. Then, 96 wells plate are filled with 100 μl of BHI broth containing drug with different concentration to get the final concentrations of 0.06, 0.13, 0.25, 0.5, 1 and 2 μg/ml in different lanes (lane 1 to lane 6). Remaining lanes of the 96 well plate are used as growth control and sterility control. Finally, P. acnes culture suspension (approx 1.5×10^6) is added in all the wells except sterility control wells and plate is incubated at 37° C. for 48-72 h under anaerobic condition. At the end of 72 h, Alamar blue solution (20 μl) is added into the wells and incubated at 37° C. for 2 h. Plate is visualized for bacterial inhibitions and MIC values of the tested samples are determined. […]

The subject of assay [5] is P. acnes CCARM 9010. As to the kind of experiment: MIC by micro broth dilution (Alamar blue), clindamycin-resistant/nonresponsive P. acnes. In kind it is cell-based, Propionibacterium acnes. The note with it: for Activity / bacterial killing, dose response curve (in words): clindamycin-nonresponsive CCARM 9010. Here is the method:
as §5, §6, §7

Assay [6] concerns S. aureus MTCC 6908. As to the kind of experiment: MIC by micro broth dilution, laboratory S. aureus strain. It counts as cell-based, Staphylococcus aureus. The note with it: Staphylococcus aureus, MTCC6908; Table 6; read-out: MIC Susceptible S. aureus (6908) strain. Here is the method:
as §5
S. aureus MTCC 6908 were grown in Tryptone Soya Agar (TSA) at 37° C. for 24 hours. […] Plates were incubated at 37° C. for 24 hours. […] (2) Zone of Inhibition (ZOI): S. aureus MTCC 6908 were grown in Tryptone Soya Agar (TSA) at 37° C. for 24 hours. BHA plates are spreaded with 100 μl of 0.5 McFarland standard equal bacterial suspension. Test samples (drugs/formulations) were dissolved in water/solvent based on the solubility. Sterile disc (6 mm) were loaded with 10 μl of test samples (of various concentration of drug), and were placed above the spreaded plates. Plates were incubated at 37 C for 24 h, followed by ZOI measurement. (3) Time Kill Assay: 0.5 McFarland standard equal S. aureus culture was prepared in sterile water. Besifloxacin gels were diluted in Tryptone Soya broth (TSB) to get final concentration of 25 μg/ml. Then 900 μl of S. aureus 0.5 McFarland standard equal culture and 100 μl of diluted Besifloxacin gel was mixed to obtain final Besifloxacin concentration, 2.5 μl g/ml. Total reaction mixture (1 ml) was incubated at 37° C. in a tube rotator. After 2 and 6 h exposure, bacterial suspension was placed on Tryptone soya agar plate and incubated at 37° C. for 24 h.
Inoculated plates were incubated at 37° C. for 24 hours.

The target in assay [7] is T1, E. coli DNA gyrase (Escherichia coli, UniProt P0AES4+P0AES6).
T1 construct: purchased Topogen Inc
T1 sequence (P0AES4 whole entry, one chain of several): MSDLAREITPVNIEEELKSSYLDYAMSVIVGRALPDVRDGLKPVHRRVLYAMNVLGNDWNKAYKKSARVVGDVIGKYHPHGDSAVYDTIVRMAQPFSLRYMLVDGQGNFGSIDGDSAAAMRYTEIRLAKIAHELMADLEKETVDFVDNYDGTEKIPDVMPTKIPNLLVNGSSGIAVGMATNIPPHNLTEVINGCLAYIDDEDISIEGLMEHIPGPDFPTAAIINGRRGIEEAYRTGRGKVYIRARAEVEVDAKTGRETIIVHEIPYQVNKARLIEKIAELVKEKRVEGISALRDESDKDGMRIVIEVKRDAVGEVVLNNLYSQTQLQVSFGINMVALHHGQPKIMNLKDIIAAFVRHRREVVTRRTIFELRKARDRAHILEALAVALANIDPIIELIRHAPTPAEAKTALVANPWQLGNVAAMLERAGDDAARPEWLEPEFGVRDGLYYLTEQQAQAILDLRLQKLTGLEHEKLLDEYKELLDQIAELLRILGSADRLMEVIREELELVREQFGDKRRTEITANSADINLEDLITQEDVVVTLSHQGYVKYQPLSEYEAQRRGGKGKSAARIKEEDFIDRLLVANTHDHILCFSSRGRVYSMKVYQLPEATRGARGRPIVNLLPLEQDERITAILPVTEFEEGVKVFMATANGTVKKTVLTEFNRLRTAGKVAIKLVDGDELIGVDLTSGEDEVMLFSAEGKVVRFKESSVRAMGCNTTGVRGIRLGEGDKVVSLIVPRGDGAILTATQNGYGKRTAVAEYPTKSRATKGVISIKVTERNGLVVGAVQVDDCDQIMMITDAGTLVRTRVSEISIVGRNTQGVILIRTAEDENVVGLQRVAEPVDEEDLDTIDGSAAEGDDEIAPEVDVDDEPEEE
The assay is described as follows: DNA gyrase super-coiling activity assay (Topogen kit, relaxed pHOT1 plasmid). In kind it is biochemical. Conditions: 1 μM and 2.5 μM. The procedure: DNA super-coiling activity was assayed using DNA gyrase assay kit (Topogen Inc.) with relaxed pHOT1 E. coli plasmid DNA according to manufacturer's protocol. The standard reaction mixture (20 μl) contained 35 mM Tris-HCl (pH 7.5), 24 mM KCl, 4 mM MgCl2, 2 mM dithiothreitol, 1.8 mM spermidine, 1 mM ATP, 6.5% glycerol, 0.1 mg/ml bovine serum albumin (BSA), 10 μg/ml relaxed pHOT1 plasmid DNA and 1 U of DNA gyrase. The reaction mixture was incubated at 37° C. for 1 h in presence of selected compounds/fluoroquinolone at different concentrations. The reaction was terminated by addition of ⅕ volume of loading dye (4 μl) followed by proteinase K (50 μg/ml) and again incubated at 37° C. for half an hour. 20 μl chloroform/isoamyl alcohol (24:1) was added to each tube and vortexed briefly. Thereafter, the blue aqueous phase was separated out and analyzed by 1% agarose gel electrophoresis. The gel was stained by ethidium bromide for half an hour and destained with water for 15 mins. The gel was then visualized in a trans-illuminator and photographed.

Setting [8] is: Cells + P. acnes + 10 μg/ml, 24 h, Table 70.
Where [9] appears, read: Cells + P. acnes + 30 μg/ml, 24 h, Table 70.
[10] abbreviates: Cells + P. acnes + Besifloxacin•HCl 10 μg/ml, Table 71.

With `Cl.N[C@@H]1CCCCN(c2c(F)cc3c(=O)c(C(=O)O)cn(C4CC4)c3c2Cl)C1` [Besifloxacin•HCl], the results for the “Expression of Cytokines IL-6 (pg/ml) Mean” value in assay [1] (setting [8]), in assay [1] (setting [9]) and in assay [1] (setting [10]) were 282.45 pg/mL, 124.58 pg/mL and 282.45 pg/mL, respectively. Besides, the “Expression of Cytokines IL-8 (pg/ml) Mean” value in assay [2] (setting [8]) was 2484.8 pg/mL; in assay [2] (setting [9]), 2301.6 pg/mL; in assay [2] (setting [10]) it was 2484.76 pg/mL. Further, the “Log 10 value of P. acnes” value in assay [3] (stock in DMSO, 0 h) was 7.0 ± 0.02; in assay [3] (stock in DMSO, 1 h) it was 6.7 ± 0.03; in assay [3] (stock in DMSO, 6 h), 6.0 ± 0.05; in assay [3] (stock in DMSO, 24 h) it was 5.2 ± 0.02; in assay [3] (stock in water, 0 h), 7.0 ± 0.02; in assay [3] (stock in water, 1 h), 6.7 ± 0.03. For the same molecule, the “Log 10 value of P. acnes” value in assay [3] (stock in water, 6 h) worked out at 6.0 ± 0.02; in assay [3] (stock in water, 24 h), 5.2 ± 0.02.
Take `Cc1ncc([N+](=O)[O-])n1CC(CCl)OC(=O)CN1CCN(c2cc3c(cc2F)c(=O)c(C(=O)O)c2n3C(C)S2)CC1` (stereo not shown) [Compound 90, 7-{4-[1-Chloromethyl-2-(2-methyl-5-nitro-imidazol-1-yl)-ethoxycarbonylmethyl]-piperazin-1-yl}-6-fluoro-1-methyl-4-oxo-4H-2-thia-8b-aza-cyclobuta[a]naphthalene-3-carboxylic acid]: the minimum inhibitory concentration (MIC) in assay [4] (Cutibacterium acnes, MTCC1951, read-out: MIC Susceptible P. acnes (1951) strain) was determined as 1.7 µg/mL (≈ 2.79 µM); in assay [5] (Cutibacterium acnes, CCARM9010, read-out: MIC Resistant P. acnes (9010) strain), 0.9 µg/mL (≈ 1.48 µM); in assay [6], 1 µg/mL (≈ 1.64 µM). In addition, the “Activity / bacterial killing, dose response curve (in words)” value is “ineffective” in assay [4], “not active” in assay [4] (listed as compound 90), “shows activity” in assay [5] and “promising activity” in assay [5] (listed as compound 90). Also, the “Inhibition of super-coiling activity of DNA gyrase (in words)” value in assay [7] is recorded as “able to inhibit the super-coiling activity”.
